The text below walks through data of patent publication US20240165209A1, “PLACENTAL ALKALINE PHOSPHATASE FOR REDUCING THE LOSS OF RED BLOOD CELLS, WHITE BLOOD CELLS, AND PLATELETS IN CHEMOTHERAPY TREATED CANCER PATIENTS” (ZOLTAN LABORATORIES, LLC, priority 2021, published 2024).

The test has as its system bone marrow MSCs. In words: DNA synthesis ([3H]thymidine incorporation) in MSCs. The class given is cell-based, human. Conditions: 20 hours, no PLAP. An excerpt: For the experiment, bone marrow aspirates were taken from normal human adult donors after informed consent. For the preparation of bone marrow MSCs, essentially a widely used technique was used as described earlier by others [Pittenger, M. F., Mackay, A. M., Beck, S. C., et al. (1999) Multilineage potential of adult human mesenchymal stem cells. Science 284, 143-147]. Briefly, nucleated cells were isolated with a pre-prepared commercial density gradient (Lymphoprep, Nycomed, Pharma, Oslo, Norway) and re-suspended in Dulbecco's modified Eagle's medium (DMEM) (GIBCO, Grand Island, NY) supplemented with 10% fetal calf serum (FCS), 50 U/ml of penicillin, and 50 μg/ml of streptomycin (GIBCO). All nucleated cells were plated in 25-cm^2 flasks (BD Falcon, Bedford, MA) at 37° C. in humidified atmosphere containing 5% CO2. After 24 hours, non-adherent cells were removed and cryopreserved in liquid nitrogen until use. The remaining adherent cells were thoroughly washed with Hanks balanced salt solution (HBSS) (GIBCO). Fresh complete culture medium was added and replaced every 3 or 4 days (twice a week). When cells grew to about 80% confluence, they were suspended and harvested by incubating with a ready-made solution containing 0.25% trypsin and 1 mM EDTA (Sigma-Aldrich, St. Louis, MO) for 5 minutes at 37° C.; this cell suspension is designated as passage 1. These cells were further expanded with 1:3-1:5 splitting in 175-cm^2 flasks (BD Falcon). For the determination of DNA synthesis, cells were divided into 12-well plates in the complete medium and let the cells grow to about 60% confluence. After changing the spent medium for fresh complete medium (i.e., containing 10% fetal calf serum), cells were treated for 20 hours with 20-100 μM ATP and/or 200 nM PLAP as well as 50-200 μM Cyp in the absence or presence of 200 nM PLAP. For labeling newly formed DNA, cells received 1,130,000 d.p.m. [^3H] thymidine for the last 4 hours of the treatment period. DNA synthesis was determined as described earlier [She, Q.-B., Mukherjee, J. J., Huang, J.-S., Crilly, K. S. and Kiss, Z. (2000) Growth factor-like effects of placental alkaline phosphatase in human fetus and mouse embryo fibroblasts. FEBS Lett. 469, 163-167]. The data is expressed as d.p.m. [^3H] thymidine incorporated into DNA/well (n=3).
Background: Incorporation of labelled thymidine or its analogues reports DNA synthesis.

Turning to `O.O=P1(N(CCCl)CCCl)NCCCO1` (centres unmarked) [Cyp, 2-[Bis (2-chloroethyl)amino] tetrahydro-2H-1,3,2-oxazaphosphorine 2-oxide monohydrate], the “d.p.m. [^3H] thymidine incorporated into DNA/well” value is given as 51,684 ± 2.772 d.p.m (Cyp 50 μM) and 32,536 ± 3,280 d.p.m (Cyp 200 μM).
